Assay results: patent US20210246128A1, “BICYCLE TOPOISOMERASE I INHIBITING COMPOUNDS, PROCESS FOR PREPARATION AND USE THEREOF” (Council of Scientific & Industrial Research, priority 2018, published 2021)
Converted amounts (≈) assume the structure as drawn. Like-named read-outs stand apart in the source and are kept apart here.

Key:
[1] = target: T1, recombinant human TopI (HTopI) (Homo sapiens, UniProt P11387); assay: Gel based plasmid DNA relaxation assay with recombinant TopI (in vitro); type: biochemical; conditions: recombinant human TopI; for IC50: plasmid DNA relaxation
T1 sequence (P11387 1-765): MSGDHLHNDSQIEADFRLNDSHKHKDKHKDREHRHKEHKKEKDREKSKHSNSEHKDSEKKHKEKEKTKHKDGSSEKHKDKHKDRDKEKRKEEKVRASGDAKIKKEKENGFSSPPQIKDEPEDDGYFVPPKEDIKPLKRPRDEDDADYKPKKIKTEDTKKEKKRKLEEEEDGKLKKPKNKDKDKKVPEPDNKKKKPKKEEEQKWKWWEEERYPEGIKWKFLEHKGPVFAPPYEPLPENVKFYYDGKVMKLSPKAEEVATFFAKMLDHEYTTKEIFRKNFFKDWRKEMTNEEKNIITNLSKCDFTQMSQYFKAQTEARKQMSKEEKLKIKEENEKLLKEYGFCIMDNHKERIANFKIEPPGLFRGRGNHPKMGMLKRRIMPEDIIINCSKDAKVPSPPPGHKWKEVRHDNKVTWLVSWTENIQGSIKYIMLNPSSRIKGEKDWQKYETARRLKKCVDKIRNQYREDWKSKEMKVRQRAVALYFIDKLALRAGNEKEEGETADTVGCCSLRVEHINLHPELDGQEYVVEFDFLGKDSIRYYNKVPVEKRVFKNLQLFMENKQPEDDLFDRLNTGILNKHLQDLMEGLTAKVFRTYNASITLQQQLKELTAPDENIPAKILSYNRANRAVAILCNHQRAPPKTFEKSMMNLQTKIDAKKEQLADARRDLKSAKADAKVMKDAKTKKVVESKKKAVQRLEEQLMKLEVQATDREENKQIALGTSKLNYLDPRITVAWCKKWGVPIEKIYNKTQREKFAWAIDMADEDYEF
Description: (§1) Human ToPI Inhibition in Plasmid DNA Relaxation Assays with Recombinant TopI (In Vitro) or MCF7 Cell Lysates (Ex Vivo)
(§2) Relaxation of supercoiled pBSSK(^+) DNA with recombinant human TopI (HTopI) at a molar ratio of 3:1 at 37° C. for 30 minutes was performed

[2] = target: T2, endogenous TopI from the whole cell extracts of human breast adenocarcinoma (MCF7) cell (Homo sapiens, UniProt P11387); assay: Plasmid DNA relaxation assay with MCF7 cell lysates (ex vivo); type: biochemical; conditions: MCF7 cell lysates as source of TopI
T2 construct: TopI enzyme in the extract is conserved in its native structure among a plethora of other cellular proteins; endogenous in cells; host or cells: MCF7 whole cell extract
T2 sequence (P11387 1-765): T1 sequence (P11387 1-765)
Description: as §1, §2
cellular extracts were utilized as a source of TopI (ex vivo) in plasmid DNA relaxation assays. TopI enzyme in the extract is conserved in its native structure among a plethora of other cellular proteins.

[3] = Lipophilicity assay (octanol/buffer Log D); conditions: n-octanol/sodium phosphate buffer, pH 7.4
Description: 1.56 g NaH2PO4.2H2O was dissolved in 0.5 L water in a 1 L beaker. After adjusting pH to 7.4 using NaOH solution, the volume was made up to 1 L. Equal volumes of sodium phosphate buffer (10 mM, pH 7.4) and n-octanol were added to a separation funnel and mixed thoroughly by shaking and inverting the funnel several times. The two layers were allowed to separate for 2 days and then dispensed in two separate glass bottles. 10 mM stock solution was prepared in 100% DMSO and stored at 4° C. 500 μL of organic phase (1-octanol) was added to each well of a 2 mL deep well plate, followed by 500 μL of buffer and 15 μL of test substance was added. The plate was vortexed for 1 hr on a plate shaker at 1200 rpm. After incubation, the samples were allowed to equilibrate for 20 min and then centrifuged at 4000 rpm for 30 min for complete phase separation and analysed by LC-UV.
Log D=Log(area of octanol/area of buffer)
Mean, SD and % CV for each set of triplicates were calculated

Plasma stability assay = type: in vitro ADME; conditions: pH 7.4, 37° C., 1 μM
Description: The stock solution of 10 mM of test compound in DMSO was prepared and stored at 4° C. 25 μM stock of test compound was prepared in acetonitrile: water by diluting from 10 mM stock (i.e. 2.5 μL of 10 mM stock solution was added to 997.5 μL of acetonitrile: water (50:50). The frozen plasma was thawed at room temperature and centrifuged at 1400×RCF (relative centrifugal force) 4° C., for 15 minutes. Approximately 90% of the clear supernatant fraction was transferred to a separate tube and was used for the assay.
For 0 min samples, plasma was heat inactivated at 56° C. for 45 min. To 72 μL of heat inactivated plasma, 3 μL of 25 μM test compound was added. A 25 μL aliquot of the mixture was taken and crashed with 200 μL of acetonitrile containing internal standard and further processed along with other time points. For other time point samples, final working stock of 1 μM was prepared by diluting in plasma (i.e. 8 μL of 25 μM acetonitrile:water stock was added to 192 μL of plasma). 200 μL of plasma containing the test compound was incubated for 2 hrs at 37° C. in shaker water bath with gentle shaking. 25 μL aliquot of sample at 0, 15, 30, 60 and 120 min was precipitated immediately with 200 μL of acetonitrile containing internal standard and centrifuged at 4000×RCF, 4° C. for 20 minutes. 150 μL of supernatant was diluted with 150 μL of water and analyzed on LC-MS/MS.

[4] = Solubility assay (pH 7.4 pION buffer, UV); type: physicochemical; conditions: pH 7.4 pION buffer, aqueous buffer, kinetic from dmso stock; pH 7.4 buffer, 18 hours incubation; read-out: Avg. Solubility (μg/mL) at pH 7.4
Description: 5 μL of 20 mM DMSO stock from the stock plate was added to the reaction deep well plate containing 495 μL of pH 7.4 pION buffer (including DMSO control) respectively and the samples were mixed and incubated for 18 hours. The plate was sealed well during the incubation process. The DMSO content in the sample was <1.0%. The concentration in deep well plates was 200 μM. 4 μL of 20 mM stock (including DMSO control) was added to 996 μL of acetonitrile to prepare the working stock plate. 75 μL of working stock was added to 75 μL of blank buffer and read on spectrophotometer as reference plate at 240 nm. At the end of the incubation period, 100 μL of sample from storage plate was vacuum filtered using a filter plate. This step wets the filters and the filtrate was discarded. Another 200 μL of the sample from deep well plate was vacuum filtered in to a new filter collection plate. 75 μL of the filtrate from the filter collection plate was transferred to a UV sample plate. 75 μL of acetonitrile was added to this UV plate. The solution was mixed and the spectrum was read using the UV spectrophotometer at 240 nm. Plates were read on spectramax using SoftMax Pro software version 5.3.

[5] = Caco-2 permeability (21 day culture of Caco-2 cell monolayer); type: in vitro ADME; conditions: human; for efflux ratio at 120 min, 10 μM: Caco-2, pH 7.4; for recovery at 120 min, 10 μM: Caco-2, pH 7.4, Caco-2; for Papp A→B at 120 min, 10 μM / Papp B→A at 120 min, 10 μM: pH 7.4, Caco-2, 10 μM; for Papp A→B at 120 min, 10 μM: read-out: Papp Apical to Basal; for Papp B→A at 120 min, 10 μM: read-out: Papp Basal to Apical
Description: 5 mL of 100 mM sodium pyruvate, 5 mL of 10× non-essential amino acids, 5 mL of penstrep were added to 100 mL of heat inactivated foetal bovine serum to 385 mL of DMEM aseptically and mixed thoroughly. One vial of Hank's balanced salt (Sigma-H1387) was dissolved in 900 mL of milli Q water; adjusted the pH to 7.4 and made up the volume to 1000 mL with the same. The solution was filter sterilized and stored at 4° C. Stock solution of test compound (10 mM) was prepared in DMSO. 10 mM stock was diluted with HBSS Buffer to a final concentration of 10 μM.
250 μL of DMEM was added to the basal compartment of 96 well multi-screen Caco-2 plate and seeded 12000 cells/well (0.16×10^6 cells/ml) in all the apical wells required and one well with only media as blank without cells, placed the Caco-2 plate in CO2 incubator at 37° C. for proliferation of cells.
On the day of assay, medium was removed and washed twice with HBSS Buffer and incubated with HBSS buffer for 30 min in an incubator and wells with TEER values >230 ohm·cm^2 were selected for the incubation. 75 μL of test compound was added to apical wells and 250 μL of HBSS buffer with 2% BSA was added to basal wells. 25 μL of basal samples was collected at 120 min and processed as stated below.
250 μL of test compound was added to basal wells and 75 μL of HBSS buffer with 2% BSA was added to apical wells. 25 μL of apical samples was collected at 120 min and processed as stated below.
Single point calibration curve in HBSS buffer with 2% BSA was used. Donor samples were diluted 1:1 with HBSS containing 2% BSA and receiver samples were diluted with 1.1 HBSS buffer and precipitated with 200 μL of acetonitrile containing internal standard and vortexed for 5 min @ 1000 rpm, centrifuged at 4000 rpm for 10 min. Finally 100 μL of supernatant was diluted with 200 μL of water and submitted for LC-MS/MS analysis.

calf thymus (CT) DNA = assay: Ethidium bromide (EtBr) displacement assay; type: binding; conditions: 1 μM EtBr, 5 nM CT DNA, 0-200 μM compound

COc1ccc(-c2ccc3ncc(-c4nnco4)c(NCCN4CCOCC4)c3c2)cc1 [Compound 9, 6-(4-methoxyphenyl)-N-(2-morpholinoethyl)-3-(1,3,4-oxadiazol-2-yl)quinolin-4-amine]
melting point: 156 °C | inhibition at 10 µM ([1]; at 10 μM, read-out: In vitro inhibition at 10 μM): 45%

Cc1ccc(-c2ccc3ncc(-c4nnco4)c(NCCN4CCOCC4)c3c2)cc1[N+](=O)[O-] [Compound 10, 6-(4-methyl-3-nitrophenyl)-N-(2-morpholinoethyl)-3-(1,3,4-oxadiazol-2-yl)quinolin-4-amine]
melting point: 222 °C

COc1cccc(-c2ccc3ncc(-c4nnco4)c(NCCCn4ccnc4)c3c2)c1 [Compound 82, N-(3-(1H-Imidazol-1-yl)propyl)-6-(3-methoxyphenyl)-3-(1,3,4-oxadiazol-2-yl)quinolin-4-amine]
melting point: 96 °C | IC50 [2]: 4110 nM | IC50 [1]: 1050 nM

COc1ccc(-c2ccc3ncc(-c4nnco4)c(NCCCn4ccnc4)c3c2)cn1 [Compound 33, N-(3-(1H-imidazol-1-yl)propyl)-6-(6-methoxypyridin-3-yl)-3-(1,3,4-oxadiazol-2-yl)quinolin-4-amine]
logD [3]: 2.79 | Mean % remaining at 2 hrs in human Plasma (Plasma stability assay): 102.28% | solubility at 18 h [4]: 27.9 µg/mL (≈ 65.4 µM) | efflux ratio at 120 min, 10 μM [5]: 4.01 | recovery at 120 min, 10 μM ([5]; read-out: A to B % Recovery): 83.9% | recovery at 120 min, 10 μM ([5]; read-out: B to A % Recovery): 92% | Papp A→B at 120 min, 10 μM [5]: 7.89 ×10⁻⁶ cm/s | Papp B→A at 120 min, 10 μM [5]: 31.5 ×10⁻⁶ cm/s | IC50 [2]: 625 nM | IC50 [1]: 17 nM

COc1cc(NS(C)(=O)=O)ccc1Nc1c2ccccc2nc2ccccc12 [m-AMSA]
displacement of bound EtBr (DNA intercalation) (calf thymus (CT) DNA): capability to dislodge the bound fluorophore (EtBr) at 50 μM concentration

c1cncc(-c2ccc3ncc(-c4nnco4)c(NCCCn4ccnc4)c3c2)c1 [Compound 30, N-(3-(1H-imidazol-1-yl)propyl)-3-(1,3,4-oxadiazol-2-yl)-6-(pyridin-3-yl)quinolin-4-amine]
logD [3]: 3.54 | Mean % remaining at 2 hrs in human Plasma (Plasma stability assay): 14.62% | solubility at 18 h [4]: 44 µg/mL (≈ 111 µM) | efflux ratio at 120 min, 10 μM [5]: 40 | recovery at 120 min, 10 μM ([5]; read-out: A to B % Recovery): 84.8% | recovery at 120 min, 10 μM ([5]; read-out: B to A % Recovery): 74.2% | Papp A→B at 120 min, 10 μM [5]: 0.95 ×10⁻⁶ cm/s | Papp B→A at 120 min, 10 μM [5]: 38.3 ×10⁻⁶ cm/s | IC50 [2]: 1250 nM | IC50 [1]: 397 nM

COc1cc([C@@H]2c3cc4c(cc3[C@@H](O[C@@H]3O[C@@H]5CO[C@@H](C)O[C@H]5[C@H](O)[C@H]3O)[C@H]3COC(=O)[C@H]23)OCO4)cc(OC)c1O [etoposide]
displacement of bound EtBr (DNA intercalation) (calf thymus (CT) DNA): unable to displace EtBr

N#Cc1ccc(-c2ccc3ncc(-c4nnco4)c(NCCN4CCOCC4)c3c2)cc1 [Compound 11, 4-(4-(2-morpholinoethylamino)-3-(1,3,4-oxadiazol-2-yl)quinolin-6-yl)benzonitrile]
melting point: 190 °C

COc1ccc(-c2ccc3ncc(-c4nnco4)c(NCCN4CCOCC4)c3c2)cc1OC [Compound 8, 6-(3,4-dimethoxyphenyl)-N-(2-morpholinoethyl)-3-(1,3,4-oxadiazol-2-yl)quinolin-4-amine]
melting point: 116 °C
